In patent publication EP0386076B1, “PHOSPHORYLED DERIVATIVES OF CARDIODILATINE/ANF PEPTIDES” (FORSSMANN, Wolf-Georg, Prof. Dr. med., priority 1987, dated 1993):
Ends that are not written are not given here.

Assays:
[1] = test system: c-AMP-abhängiger Proteinkinase; conditions: peptide as substrate of c-AMP-abhängiger Proteinkinase; read-out: Michaeliskonstante Km; cited from earlier work
[2] = test system: Muskelstreifen von Kaninchenaorta; experiment: Relaxation of norepinephrine-precontracted rabbit aorta muscle strips in an organ bath; set-up: species or system Neuseeland-Kaninchen
Text: Muskelstreifen von Kaninchenaorta wurden zunächst mit einer Lösung von Norepinephrin (10⁻⁷ M) kontrahiert. Nachdem sich konstante Bedingungen eingestellt hatten, wurden die Peptide hinzugefügt (Position des Pfeils).
Die Abbildung 6 zeigt die Reaktion von Kaninchenaorta-Muskelstreifen auf die schrittweise Zugabe von nicht phosphoryliertem, phosphoryliertem und danach wieder nicht phosphoryliertem Alpha-hANaP (CDD-28). Die Verbindungen wurden jeweils so zugegeben, daß sie im Untersuchungsbad in einer Endkonzentration von 0,3 x 10⁻⁹ M vorlagen.
Aortae von Neuseeland-Kaninchen wurden präpariert. Die Muskelspannung wurde an Muskelstreifen in einem Organbad, enthaltend physiologische Kochsalzlösung, gemessen. Die Streifen wurden vorkontrahiert mit einer Lösung von 10⁻⁶ M Norepinephrin, danach bei vollständiger Relaxation. Für den Assay wurde eine weitere Kontraktion mit 10⁻⁷ M Norepinephrin ausgelöst. Nachdem konstante Kontraktionsbedingungen erreicht waren, wurden die Peptide appliziert.
Zur Kontrolle wurde nicht phosphoryliertes Alpha-hANaP unter gleichen Bedingungen inkubiert, jedoch ohne Anwesenheit von ATP. Phosphoryliertes und nicht phosphoryliertes Alpha-hANaP wurde zu den vorkontrahierten Kaninchenaorta-Muskelstreifen gegeben, so daß sie in einer Endkonzentration von 0,3 x 10⁻⁹ M vorlagen. […]

Substance	Km [1] [µM]	relatives Relaxationsvermögen ([2]; Abbildung 7, phosphorylated versus non-phosphorylated form at corresponding concentration)	Relaxationsaktivität ([2]; Beispiel 6, tested analogously to Beispiel 5, several concentrations)
Arg¹⁰¹-Tyr¹²⁶	0.5	–	–
phosphorylierte CDD-32: CDD-32 (Urodilatin, ANF/CDD-95-126) phosphorylated according to Beispiel 1; Formel I with R = Aminosäuren 95-98 (TAPRSLRRSSCFGGRMDRIGAQSGLGCNSFRY; ends and bridges not checked; also: phosphorylated (phosphate group), site not given here; UniProt P01160 120-151, looked up, fragment)	–	deutlich geringeres Relaxationsvermögen	deutlich geringere Relaxation
